Test results from patent publication US7473790B2 (Pfizer Inc., priority 2003, dated 2009).

These molecules were tested against T1, HCV polymerase (Hepatitis C virus genotype 1b, UniProt P26663) (assay: HCV polymerase primer/template-directed transcription assay (32P-GTP incorporation, filter binding)). Settings: compound concentration not given.
T1 construct: 2.5 pmoles (0.15 μg) HCV polymerase protein in a final volume of 75 μL
Type: biochemical
In short: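 Recombinant genotype 1b polymerase (30 nM) extended biotin-dG12 primer on poly(rC)300 template with 1 μM GTP plus α-32P-GTP, pH 7.2, 10 mM MgCl2, 30 min at 30° C, 1% DMSO final. Products captured on DE filters and counted. IC50 fitted from triplicate cpm, with a tight-binding correction applied below 200 nM.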

T1 sequence (P26663 2420-3010): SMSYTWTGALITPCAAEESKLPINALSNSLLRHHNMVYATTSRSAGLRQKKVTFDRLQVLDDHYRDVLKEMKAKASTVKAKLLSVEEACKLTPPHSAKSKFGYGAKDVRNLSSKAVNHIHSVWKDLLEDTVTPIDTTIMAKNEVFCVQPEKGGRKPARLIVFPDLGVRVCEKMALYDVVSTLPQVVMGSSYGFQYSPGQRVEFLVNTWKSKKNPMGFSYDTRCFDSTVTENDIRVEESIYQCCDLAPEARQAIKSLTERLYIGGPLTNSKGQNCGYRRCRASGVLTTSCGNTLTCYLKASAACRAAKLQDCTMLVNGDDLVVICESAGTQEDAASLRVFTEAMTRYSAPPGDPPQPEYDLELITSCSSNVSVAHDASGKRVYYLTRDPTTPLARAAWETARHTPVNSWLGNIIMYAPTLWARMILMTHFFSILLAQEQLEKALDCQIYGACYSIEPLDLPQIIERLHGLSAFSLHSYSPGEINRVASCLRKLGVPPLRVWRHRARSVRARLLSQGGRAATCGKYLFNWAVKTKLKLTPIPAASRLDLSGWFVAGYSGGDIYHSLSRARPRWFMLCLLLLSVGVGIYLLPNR

SMILES	percent inhibition [%]
Cc1cc(C)n2nc(CC3=C(O)CC(CCc4ccc(O)c(C(C)C)c4)(C4CCCC4)OC3=O)nc2n1 (centres unmarked) [B(94), 6-Cyclopentyl-3-(5,7-dimethyl-[1,2,4]triazolo[1,5-a]pyrimidin-2-ylmethyl)-4-hydroxy-6-[2-(4-hydroxy-3-isopropyl-phenyl)-ethyl]-5,6-dihydro-pyran-2-one]	1

Same assay, conditions: recombinant HCV polymerase; 30 minutes at 30° C.; concentration giving 50% inhibition of polymerase-directed transcription; read-out: IC50

SMILES	IC50 [nM]
Cc1cc(C)n2nc(CC3=C(O)CC(CCc4ccc(C5(C#N)CC5)c(F)c4)(C4CCCC4)OC3=O)nc2n1 (centres unmarked) [B(76), 1-(4-{2-[2-Cyclopentyl-5-(5,7-dimethyl-[1,2,4]triazolo[1,5-a]pyrimidin-2-ylmethyl)-4-hydroxy-6-oxo-3,6-dihydro-2H-pyran-2-yl]-ethyl}-2-fluoro-phenyl)-cyclopropanecarbonitrile]	1
COc1ccc(CCC2(C3CCCC3)CC(=O)C(Cc3ccccc3)C(=O)O2)cc1 (centres unmarked) [B(77), 3-benzyl-6-cyclopentyl-6-[2-(4-methoxyphenyl)ethyl]dihydro-2H-pyran-2,4(3H)-dione]	5500
COc1ccc(CCC2(C3CCCC3)CC(=O)C(Cc3ccccc3)C(=O)O2)cc1Cl (centres unmarked) [B(78), 3-benzyl-6-[2-(3-chloro-4-methoxyphenyl)ethyl]-6-cyclopentyldihydro-2H-pyran-2,4(3H)-dione]	1000
C=CCC1C(=O)CC(CCc2ccc(OC)c(Cl)c2)(C2CCCC2)OC1=O (centres unmarked) [B(79), 3-allyl-6-[2-(3-chloro-4-methoxyphenyl)ethyl]-6-cyclopentyldihydro-2H-pyran-2,4(3H)-dione]	2400
COc1ccc(CCC2(C3CCCC3)CC(=O)C(Cc3cccnc3)C(=O)O2)cc1Cl (centres unmarked) [B(80), 6-[2-(3-chloro-4-methoxyphenyl)ethyl]-6-cyclopentyl-3-(pyridin-3-ylmethyl)dihydro-2H-pyran-2,4(3H)-dione]	560
COc1ccc(CCC2(C3CCCC3)CC(=O)C(Cc3ccccn3)C(=O)O2)cc1Cl (centres unmarked) [B(81), 6-[2-(3-chloro-4-methoxyphenyl)ethyl]-6-cyclopentyl-3-(pyridin-2-ylmethyl)dihydro-2H-pyran-2,4(3H)-dione]	~240
COc1ccc(CCC2(C3CCCC3)CC(=O)C(Cc3ccncc3)C(=O)O2)cc1Cl (centres unmarked) [B(82), 6-[2-(3-chloro-4-methoxyphenyl)ethyl]-6-cyclopentyl-3-(pyridin-4-ylmethyl)dihydro-2H-pyran-2,4(3H)-dione]	680
COc1ccc(CCC2(C3CCCC3)CC(=O)C(Cc3cn4cccnc4n3)C(=O)O2)cc1Cl (centres unmarked) [B(83), 6-[2-(3-chloro-4-methoxyphenyl)ethyl]-6-cyclopentyl-3-(imidazo[1,2-a]pyrimidin-2-ylmethyl)dihydro-2H-pyran-2,4(3H)-dione]	360
COc1ccc(CCC2(C3CCCC3)CC(=O)C(Cc3nc4ccccc4n3C)C(=O)O2)cc1Cl (centres unmarked) [B(84), 6-[2-(3-chloro-4-methoxyphenyl)ethyl]-6-cyclopentyl-3-[(1-methyl-1H-benzimidazol-2-yl)methyl]dihydro-2H-pyran-2,4(3H)-dione]	110
COc1ccc(CCC2(C3CCCC3)CC(=O)C(Cc3ccc4ccccc4n3)C(=O)O2)cc1Cl (centres unmarked) [B(85), 6-[2-(3-chloro-4-methoxyphenyl)ethyl]-6-cyclopentyl-3-(quinolin-2-ylmethyl)dihydro-2H-pyran-2,4(3H)-dione]	740
COc1ccc(CCC2(C3CCCC3)CC(O)=C(C(=O)Cc3cc(C)no3)C(=O)O2)c(OC)c1 (centres unmarked) [B(86), 6-Cyclopentyl-6-[2-(2,4-dimethoxy-phenyl)-ethyl]-4-hydroxy-3-[2-(3-methyl-isoxazol-5-yl)-acetyl]-5,6-dihydro-pyran-2-one]	22100
COc1ccc(CCC2(C3CCCC3)CC(O)=C(C(=O)Cc3ccccn3)C(=O)O2)cc1Cl (centres unmarked) [B(87), 6-[2-(3-Chloro-4-methoxy-phenyl)-ethyl]-6-cyclopentyl-4-hydroxy-3-(2-pyridin-2-yl-acetyl)-5,6-dihydro-pyran-2-one]	1800
COc1ccc(CCC2(C3CCCC3)CC(O)=C(C(C)=O)C(=O)O2)cc1Cl (centres unmarked) [B(88), 3-Acetyl-6-[2-(3-chloro-4-methoxy-phenyl)-ethyl]-6-cyclopentyl-4-hydroxy-5,6-dihydro-pyran-2-one]	5100
Cc1csc2nc(CC3=C(O)CC(CCc4ccc(C(F)F)c(F)c4)(C4CCCC4)OC3=O)cc(=O)n12 (centres unmarked) [B(89), 7-[(6-Cyclopentyl-6-{2-[4-(difluoromethyl)-3-fluorophenyl]ethyl}-4-hydroxy-2-oxo-5,6-dihydro-2H-pyran-3-yl)methyl]-3-methyl-5H-[1,3]thiazolo[3,2-a]pyrimidin-5-one]	185
COc1cc(OC)c(CCC2(C3CCCC3)CC(O)=C(Cc3cn4cccnc4n3)C(=O)O2)cc1Cl (centres unmarked) [B(90), 6-[2-(5-chloro-2,4-dimethoxyphenyl)ethyl]-6-cyclopentyl-4-hydroxy-3-(imidazo[1,2-a]pyrimidin-2-ylmethyl)-5,6-dihydro-2H-pyran-2-one]	6
CCc1cc(CCC2(C3CCCC3)CC(=O)C(Cc3nc4nc(C)cc(C)n4n3)C(=O)O2)ccc1N(C)S(C)(=O)=O (centres unmarked) [B(91), 6N-[4-(2-{2-cyclopentyl-5-[(5,7-dimethyl[1,2,4]triazolo[1,5-a]pyrimidin-2-yl)methyl]-4,6-dioxotetrahydro-2H-pyran-2-yl}ethyl)-2-ethylphenyl]-N-methylmethanesulfonamide]	10
Cn1ccc2cc(CC3=C(O)CC(CCc4ccc(C(C)(C)C#N)c(F)c4)(C4CCCC4)OC3=O)ccc21 (centres unmarked) [B(92), 2-[4-(2-{2-cyclopentyl-4-hydroxy-5-[(1-methyl-1H-indol-5-yl)methyl]-6-oxo-3,6-dihydro-2H-pyran-2-yl}ethyl)-2-fluorophenyl]-2-methylpropanenitrile]	8
CC(C)(C#N)c1ccc(CCC2(C3CCCC3)CC(O)=C(Cc3cn[nH]c3)C(=O)O2)cc1F (centres unmarked) [B(93), 2-(4-{2-[2-cyclopentyl-4-hydroxy-6-oxo-5-(1H-pyrazol-4-ylmethyl)-3,6-dihydro-2H-pyran-2-yl]ethyl}-2-fluorophenyl)-2-methylpropanenitrile]	90
Cc1cc(C)n2nc(CC3=C(O)CC(CCc4ccc(O)c(Cl)c4)(C4CCCC4)OC3=O)nc2n1 (centres unmarked) [B(95), 6-[2-(3-Chloro-4-hydroxy-phenyl)-ethyl]-6-cyclopentyl-3-(5,7-dimethyl-[1,2,4]triazolo[1,5-a]pyrimidin-2-ylmethyl)-4-hydroxy-5,6-dihydro-pyran-2-one]	13
CCc1cc(CCC2(C3CCCC3)CC(O)=C(Cc3nc4nc(C)cc(C)n4n3)C(=O)O2)ccc1OC (centres unmarked) [B(96), 6-Cyclopentyl-3-(5,7-dimethyl-[1,2,4]triazolo[1,5-a]pyrimidin-2-ylmethyl)-6-[2-(3-ethyl-4-methoxy-phenyl)-ethyl]-4-hydroxy-5,6-dihydro-pyran-2-one]	5
CCc1cc(CCC2(C3CCCC3)CC(O)=C(Cc3nc4nc(C)cc(C)n4n3)C(=O)O2)cc(Cl)c1OC (centres unmarked) [B(97), 6-[2-(3-Chloro-5-ethyl-4-methoxy-phenyl)-ethyl]-6-cyclopentyl-3-(5,7-dimethyl-[1,2,4]triazolo[1,5-a]pyrimidin-2-ylmethyl)-4-hydroxy-5,6-dihydro-pyran-2-one]	9
CCc1ccc(OC)c(CCC2(C3CCCC3)CC(O)=C(Cc3nc4nc(C)cc(C)n4n3)C(=O)O2)c1 (centres unmarked) [B(98), 6-Cyclopentyl-3-(5,7-dimethyl-[1,2,4]triazolo[1,5-a]pyrimidin-2-ylmethyl)-6-[2-(5-ethyl-2-methoxy-phenyl)-ethyl]-4-hydroxy-5,6-dihydro-pyran-2-one]	6
